Test results published in US20020115703A1, “Prevention of development of dyskinesias” (priority 2000, published 2002).

System: locomotor hyperactivity induced by repeated administration of D-amphetamine
Assay: Locomotor (ambulatory) activity after repeated D-amphetamine administration (behavioral sensitization), photobeam activity system
Type: in vivo, mice
Experimental: The effects of atipamezole on the locomotor hyperactivity induced by repeated administration of D-amphetamine were studied in male mice.
Experiments were performed with C57BL/ 6J strain male mice from Jackson Laboratories. Mice were transferred to the laboratory at least 2 weeks prior to use. The mice were from 8 to 20 weeks of age at the beginning of an experiment. Groups of 10 mice were housed in standard polypropylene cages (38×22×15 cm) with free access to standard certified pelleted food (RM1 Maintenance Expanded SQC; Special Diet Services, Essex, UK) and water. Ambient temperature was 22±1 C.°, and a 12:12 h light dark cycle was maintained with lights on at 6 A.M. All experiments were carried out between 7 A.M. 1 and 5 P.M. The animal care was performed in accordance with International Council for Laboratory Animal Science (ICLAS) guidelines.
D-Amphetamine sulphate (Sigma, St. Louis, Mo., U.S.A.) and atipamezole HCl (Orion Corporation, Orion Pharma, Turku, Finland) were dissolved in saline (0.9% NaCl) and administered subcutaneously (s.c.) in a 5 ml kg volume.
The locomotor activity of the mice was measured in transparent standard polypropylene animal cages (38×22×15 cm) with transparent covers and aspen bedding on the floors. Test cages were placed in the middle of the photobeam frame system (Photobeam Activity System PAS, Cage Rack, San Diego Instruments, San Diego, Calif.). A computer control unit registered the interruptions of photobeams from 16 individual cages. Three different types of movements were monitored: 1) ambulations (large horizontal movements), 2) fine movements (smaller horizontal movements), and 3) rearings (vertical movements). Locomotor activity was measured at 5-min intervals for 2 h immediately after D-amphetamine or saline administrations.
D-amphetamine was administered subcutaneously (s.c.) at a dose of 2 mg/kg. Atipamezole was administered s.c. at a dose of 1 mg/kg 20 min before locomotor activity measurement.
In the chronic treatment group, mice were administered the dose during eight days to elicit provoked locomotor hyperactivity to D-amphetamine and the effect of the atipamezole to the locomotor activity. Mice groups in the chronic treatment schedule were saline, saline-amphetamine, amphetamine, atipamezole and atipamezole-amphetamine. A day before experiment, mice were habituated to the test environment. Test groups with different drug treatments were administrated during four consecutive days. At days five and six, there were no drug administrations nor motor activity testing. At days seven and eight, the produced locomotor hyperactivity and effect of a single exposure of D-amphetamine (saline-amphetamine-group) were analysed. (Table 1).
At day nine, the effect of different atipamezole and amphetamine administrations to the locomotor activity on the chronic treatment groups were analysed. Treatments included saline, 1 mg/kg atipamezole, 2 mg/kg D-amphetamine, 0,3 mg/kg atipamezole- 2 mg/kg D-amphetamine and 1 mg/kg atipamezole- 2 mg/kg D-amphetamine. Chronic treatment groups were saline-, atipamezole-, amphetamine- and atipamezole-amphetamine groups. Chronic groups were treated following the schedule in Table 2.
All data are presented as mean ±SEM. Statistical analysis were performed using SPSS 9.0 for Windows (SPSS, Chicago, Ill.). Separate repeated measure analyses of variance (ANOVA) were performed on each variable for each experiment grouped on time and treatment group. Results were analysed separately, because data were collected in separate experiments with different study design. When significance (P<0.05) between treatment groups was found, comparisons at each time point (date or min) were analysed by using LSD post-hoc test.

C[C@H](N)Cc1ccccc1 [D-amphetamine]
ambulatory activity (2-h overall counts) during repeated administration (D-amphetamine 2 mg/kg s.c., six repeated administrations over days 1-8, compared to saline group, C57BL/6J male mice, FIG. 1): progressive enhance in ambulatory activity
ambulatory sensitization at Day 9 (chronic amphetamine group, repeated D-amphetamine 2 mg/kg (P<0.001), FIG. 2): developed strong ambulatory sensitization
locomotor activity at Day 9, single D-amphetamine challenge (chronic saline group, D-amphetamine 2 mg/kg at Day 9 (P<0.001 vs saline), FIG. 2): significantly enhanced locomotor activity

CCC1(c2cnc[nH]2)Cc2ccccc2C1 [atipamezole, 4-(2-ethyl-2,3-dihydro-1H-inden-2-y1)-1H-imidazole]
D-amphetamine induced locomotion at Day 9, chronic atipamezole-amphetamine group (atipamezole 1 mg/kg 20 min before D-amphetamine 2 mg/kg days 1-9, vs amphetamine-amphetamine group (P<0.001), FIG. 2): decreased significantly D-amphetamine induced locomotion
D-amphetamine-induced locomotion, chronic atipamezole pre-treatment (atipamezole 1 mg/kg s.c. 20 min before D-amphetamine 2 mg/kg s.c. over days 1-8, vs amphetamine-amphetamine group, Day 2 P<0.05, Days 3-8 P<0.001, FIG. 1): decreased significantly D-amphetamine-induced locomotion
locomotor activity, atipamezole pre-treatment before saline challenge (atipamezole 1 mg/kg s.c. daily for six days, atipamezole-saline vs saline group at Day 8 (P=0.43), FIG. 1): not a statistically significant difference
D-amphetamine-induced locomotor hyperactivity at Day 9 (expression of sensitization) (chronic amphetamine group, atipamezole 0.3 mg/kg 20 min before D-amphetamine 2 mg/kg at Day 9 (P=0.005), FIG. 2): clearly attenuated the D-amphetamine-induced locomotor hyperactivity
D-amphetamine-induced locomotor hyperactivity at Day 9 (expression of sensitization) (chronic amphetamine group, atipamezole 1 mg/kg 20 min before D-amphetamine 2 mg/kg at Day 9 (P<0.001), FIG. 2): clearly attenuated the D-amphetamine-induced locomotor hyperactivity
locomotor activity at Day 9 after chronic atipamezole (chronic atipamezole group (1 mg/kg days 1-8), before saline and D-amphetamine challenge at Day 9, FIG. 2): the elevation was not statistically significant
development of sensitisation: locomotion at Day 9 with D-amphetamine only (chronic atipamezole-amphetamine group given only D-amphetamine 2 mg/kg at Day 9, vs amphetamine-amphetamine group (P=0.026), FIG. 2): true reduction in the development of sensitisation
locomotor activity at Day 9, atipamezole before acute D-amphetamine (chronic saline group, atipamezole 0.3 mg/kg 20 min before D-amphetamine 2 mg/kg, compared to D-amphetamine alone (P=0.016), FIG. 2): amplified locomotor activity
locomotor activity at Day 9, atipamezole before acute D-amphetamine (chronic saline group, atipamezole 1 mg/kg 20 min before D-amphetamine 2 mg/kg, compared to D-amphetamine alone (P=0.364), FIG. 2): had no effect
total ambulatory activity counts at Day 9, atipamezole alone (chronic saline group, atipamezole 1 mg/kg 20 min before saline at Day 9 (P=0.81), FIG. 2): did not alter total ambulatory activity counts
development and expression of sensitization (motor overactivity), overall finding (given chronically in combination with D-amphetamine, in mice): reduces the development and expression of sensitization
